Assay results: ChEMBL document CHEMBL1148472, “Jatrophane diterpenes as modulators of multidrug resistance. Advances of structure-activity relationships and discovery of the potent lead pepluanin A” (J Med Chem, 2004)

Target: ATP-dependent translocase ABCB1 (Homo sapiens, UniProt P08183)
Test: TP_TRANSPORTER: cell accumulation of daunomycin in human K562/R7 leukemic cells
Type: functional, cell-based

ATP-dependent translocase ABCB1, sequence (P08183 whole entry): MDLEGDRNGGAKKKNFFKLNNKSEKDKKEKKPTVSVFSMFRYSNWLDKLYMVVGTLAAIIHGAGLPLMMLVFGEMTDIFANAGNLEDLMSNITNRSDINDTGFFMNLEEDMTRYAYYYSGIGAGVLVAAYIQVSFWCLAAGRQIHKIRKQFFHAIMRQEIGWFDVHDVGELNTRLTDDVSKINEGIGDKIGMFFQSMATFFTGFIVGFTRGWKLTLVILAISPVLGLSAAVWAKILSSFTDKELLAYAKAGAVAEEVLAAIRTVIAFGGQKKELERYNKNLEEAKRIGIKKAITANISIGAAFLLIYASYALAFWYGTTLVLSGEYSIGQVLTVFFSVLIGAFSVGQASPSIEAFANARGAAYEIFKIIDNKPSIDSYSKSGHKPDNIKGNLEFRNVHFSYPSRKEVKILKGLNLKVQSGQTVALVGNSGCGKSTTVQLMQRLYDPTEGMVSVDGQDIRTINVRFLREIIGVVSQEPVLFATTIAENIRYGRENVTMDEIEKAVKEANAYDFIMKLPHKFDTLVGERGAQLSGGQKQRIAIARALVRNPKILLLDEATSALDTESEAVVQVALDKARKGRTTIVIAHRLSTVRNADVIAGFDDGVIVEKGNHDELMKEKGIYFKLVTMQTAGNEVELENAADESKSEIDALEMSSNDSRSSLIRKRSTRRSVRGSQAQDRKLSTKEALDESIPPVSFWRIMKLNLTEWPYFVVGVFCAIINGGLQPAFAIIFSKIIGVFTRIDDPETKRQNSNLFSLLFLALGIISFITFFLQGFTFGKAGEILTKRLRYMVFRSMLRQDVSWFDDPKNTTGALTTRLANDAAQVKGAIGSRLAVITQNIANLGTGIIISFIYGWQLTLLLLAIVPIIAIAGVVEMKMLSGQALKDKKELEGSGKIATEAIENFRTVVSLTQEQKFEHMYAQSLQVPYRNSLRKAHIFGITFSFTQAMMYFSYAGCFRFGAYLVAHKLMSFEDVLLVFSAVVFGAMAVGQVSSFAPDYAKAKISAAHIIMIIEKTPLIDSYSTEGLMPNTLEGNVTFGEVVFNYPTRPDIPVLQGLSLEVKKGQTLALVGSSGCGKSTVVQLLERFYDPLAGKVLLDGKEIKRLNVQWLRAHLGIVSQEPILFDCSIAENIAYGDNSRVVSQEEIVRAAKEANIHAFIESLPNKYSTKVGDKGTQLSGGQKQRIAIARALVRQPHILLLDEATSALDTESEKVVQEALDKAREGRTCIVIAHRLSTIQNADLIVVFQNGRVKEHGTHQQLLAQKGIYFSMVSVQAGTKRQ

- Activity: inhibitor [+]
Structure (SMILES): C=C1[C@@H](OC(C)=O)[C@@H](OC(C)=O)[C@@H](OC(=O)c2cccnc2)C(C)(C)/C=C/[C@H](C)[C@H](OC(C)=O)[C@@]2(O)C[C@@](C)(OC(C)=O)[C@H](OC(=O)c3ccccc3)[C@@H]2[C@H]1OC(C)=O [PEPLUANIN]
